# From publication PMC7670682 (BMC Pharmacology & Toxicology, 2020)
# Entries after “also recorded” stand apart in the source; their conditions may differ. Like-named read-outs stand apart in the source and are kept apart here. Marks after values point to notes of the source that are not given here.
# Key:
# OATP-B = test system: OATP-B; parameters: method as in PMID 16415120; settings: cited from earlier work
# [1] = cited from earlier work
# in vivo = settings: male, Sprague Dawley, rat, po, 30 mg/kg
# [2] = combined use with St. John’s wort, a CYP3A4 inducer; cited from earlier work
# CYP3A = settings: in vitro, different CYP3A substrates; read-out: IC50 of CYP3A inhibition; cited from earlier work
# [3] = after oral administration of imatinib; cited from earlier work
# [4] = intragastric administration of green tea, rats
# [5] = male, Sprague Dawley, rat, in vivo, po, 30 mg/kg
# [6] = metabolite, rats, imatinib 30 mg/kg IG + KTZ 75 mg/kg/day 3 days
# [7] = metabolite, rats, imatinib 30 mg/kg IG + h-GS 100 mg/kg/day 21 days
# [8] = metabolite, rats, imatinib 30 mg/kg IG + h-GS 100 mg/kg/day 21 days, vs imatinib only
# [9] = metabolite, rats, imatinib 30 mg/kg IG + h-GS 100 mg/kg/day 21 days, vs l-GS group
# [10] = metabolite, rats, imatinib 30 mg/kg IG + h-GS 100 mg/kg/day 21 days, when GS dose was doubled
# [11] = metabolite, rats, imatinib 30 mg/kg IG + h-GS and h-GT 100 mg/kg/day each 21 days
# [12] = metabolite, rats, imatinib 30 mg/kg IG + h-GS and h-GT 100 mg/kg/day each 21 days, vs imatinib only
# [13] = metabolite, rats, imatinib 30 mg/kg IG + h-GS and h-GT 100 mg/kg/day each 21 days, vs l-GS and l-GT group
# [14] = metabolite, rats, imatinib 30 mg/kg IG + h-GT 100 mg/kg/day 21 days
# [15] = metabolite, rats, imatinib 30 mg/kg IG + l-GS 50 mg/kg/day 21 days
# [16] = metabolite, rats, imatinib 30 mg/kg IG + l-GT 50 mg/kg/day 21 days
# [17] = metabolite, rats, imatinib 30 mg/kg IG only (control)
# [18] = rats, imatinib 30 mg/kg IG + KTZ 75 mg/kg/day 3 days
# [19] = rats, imatinib 30 mg/kg IG + h-GS 100 mg/kg/day 21 days
# [20] = rats, imatinib 30 mg/kg IG + h-GS and h-GT 100 mg/kg/day each 21 days
# [21] = rats, imatinib 30 mg/kg IG + h-GT 100 mg/kg/day 21 days
# [22] = rats, imatinib 30 mg/kg IG + l-GS 50 mg/kg/day 21 days
# [23] = rats, imatinib 30 mg/kg IG + l-GS and l-GT 50 mg/kg/day each 21 days
# [24] = rats, imatinib 30 mg/kg IG + l-GT 50 mg/kg/day 21 days
# [25] = rats, imatinib 30 mg/kg IG only (control)
compound,measurement,setting,value
Oc1cc(O)c2c(c1)O[C@H](c1ccc(O)c(O)c1)[C@@H](O)C2 [(+)-catechin],inhibition of estrone-3-sulfate uptake,OATP-B; concentration of 100 mM,31.7%
"Oc1cc(O)c2c(c1)O[C@H](c1ccc(O)c(O)c1)[C@H](O)C2 [EC, (−)-epicatechin]",inhibition of estrone-3-sulfate uptake,OATP-B; concentration of 10 mM,27.2%
same,bioavailability,[1]; [4],31.2%
"Oc1cc(O)c2c(c1)O[C@H](c1cc(O)c(O)c(O)c1)[C@H](O)C2 [EGC, (−)-epigallocatechin]",inhibition of estrone-3-sulfate uptake,OATP-B; concentration of 100 mM,29.1%
same,bioavailability,"[1]; rat, in vivo, po",13.7%
"O=C(O[C@@H]1Cc2c(O)cc(O)cc2O[C@@H]1c1cc(O)c(O)c(O)c1)c1cc(O)c(O)c(O)c1 [EGCG, (−)-epigallocatechin-3-gallate]",inhibition of estrone-3-sulfate uptake,OATP-B; concentration of 10 mM,29.5%
same,bioavailability,[1]; [4],0.1%
"Cc1ccc(NC(=O)c2ccc(CN3CCN(C)CC3)cc2)cc1Nc1nccc(-c2cccnc2)n1 [Imatinib, reference compound]",Cmax,in vivo,6400 ± 3160 ng/mL
same,AUC0∞,[5],"105,160.8 ± 75,643.2 ng^.h/mL"
same,tmax,[5],4.8 ± 2.3 h
same,decrease in t0.5,"rats, imatinib 30 mg/kg IG + h-GS 100 mg/kg/day 21 days, vs imatinib only",↓ 16.1%*
same,decrease in t0.5,"rats, imatinib 30 mg/kg IG + h-GS 100 mg/kg/day 21 days, vs imatinib only, listed as imatinib",16.1%
same,decrease in t0.5,"rats, imatinib 30 mg/kg IG + h-GS and h-GT 100 mg/kg/day each 21 days, vs imatinib only",21.9%
same,decrease in t0.5,"rats, imatinib 30 mg/kg IG + h-GS and h-GT 100 mg/kg/day each 21 days, vs l-GS and l-GT group",23.1%
same,decrease in t0.5,"rats, imatinib 30 mg/kg IG + h-GT 100 mg/kg/day 21 days, vs imatinib only",↓ 15.8%*
same,decrease in t0.5,"rats, imatinib 30 mg/kg IG + h-GT 100 mg/kg/day 21 days, vs imatinib only, listed as imatinib",15.8%
same,increase in t0.5,"rats, imatinib 30 mg/kg IG + l-GS and l-GT 50 mg/kg/day each 21 days, vs l-GS group",1.1 fold
same,increase in t0.5,"rats, imatinib 30 mg/kg IG + l-GS and l-GT 50 mg/kg/day each 21 days, vs l-GT group",1.3 fold
same,reduction of the area under the curve (AUC),[2],30%
Cc1ccc(NC(=O)c2ccc(CN3CCNCC3)cc2)cc1Nc1nccc(-c2cccnc2)n1 [N-desmethyl imatinib],elimination half-life,[3],40 h
same,t0.5,[6],9.9 ± 4.4 h
same,tmax,[6],7.5 ± 1.0 h
same,MRT,[7],9.5 ± 1.0 h
same,t0.5,[7],7.1 ± 0.9 h
same,tmax,[7],4.7 ± 2.0 h
same,decrease in AUC0∞,[8],73.0%
same,decrease in Cmax,[8],67.8%
same,increase in CL/F,[8],3.7 fold
same,increase in Vz/F,[8],4.1 fold
same,decrease in AUC0∞,[9],58.5%
same,decrease in Cmax,[9],63.3%
same,increase in CL/F,[9],2.5 fold
same,increase in Vz/F,[9],2.9 fold
same,decrease in AUC0∞,[10],~ 2 fold
same,decrease in Cmax,[10],~ 2 fold
same,MRT,[11],11.9 ± 2.3 h
same,tmax,[11],4.8 ± 2.2 h
same,increase in t0.5,"metabolite, rats, imatinib 30 mg/kg IG + h-GS and h-GT 100 mg/kg/day each 21 days, vs h-GS group",1.5 fold
same,increase in t0.5,"metabolite, rats, imatinib 30 mg/kg IG + h-GS and h-GT 100 mg/kg/day each 21 days, vs h-GT group",1.4 fold
same,decrease in AUC0∞,[12],72.1%
same,decrease in Cmax,[12],71.5%
same,increase in CL/F,[12],5.3 fold
same,increase in Vz/F,[12],8.7 fold
same,increase in t0.5,[12],1.6 fold
same,decrease in AUC0∞,[13],75.8%
same,decrease in Cmax,[13],71.9%
same,increase in CL/F,[13],6.5 fold
same,increase in Vz/F,[13],8.8 fold
same,increase in t0.5,[13],1.3 fold
same,increase in the terminal half-life,"metabolite, rats, imatinib 30 mg/kg IG + h-GS and h-GT 100 mg/kg/day each 21 days, vs other high dose groups (h-GS or h-GT, not specified)",1.4 fold
same,MRT,[14],11.9 ± 2.6 h
same,tmax,[14],5.2 ± 2.6 h
same,Cmax,[15],408.8 ± 113.6 ng/mL
same,t0.5,[15],6.2 ± 0.5 h
same,tmax,[15],4.2 ± 1.0 h
same,tmax,"metabolite, rats, imatinib 30 mg/kg IG + l-GS and l-GT 50 mg/kg/day each 21 days",5.8 ± 2.6 h
same,effect on pharmacokinetics,"metabolite, rats, imatinib 30 mg/kg IG + l-GS and l-GT 50 mg/kg/day each 21 days, vs imatinib only",no significant effects; also recorded: not significantly affected
same,increase in AUC0∞,"metabolite, rats, imatinib 30 mg/kg IG + l-GS and l-GT 50 mg/kg/day each 21 days, vs l-GS group",1.8 fold
same,increase in AUC0∞,"metabolite, rats, imatinib 30 mg/kg IG + l-GS and l-GT 50 mg/kg/day each 21 days, vs l-GT group",6.1 fold
same,MRT,[16],11.2 ± 1.8 h
same,t0.5,[16],8.0 ± 0.7 h
same,tmax,[16],5.3 ± 1.6 h
same,AUC0∞,[17],7143.3 ± 2165.3 ng^.h/mL
same,Cmax,[17],465.6 ± 94.0 ng/mL
same,MRT,[17],11.6 ± 3.8 h
same,t0.5,[17],6.6 ± 0.5 h
same,tmax,[17],6.7 ± 2.1 h
same,differences in pharmacokinetic parameters,"metabolite, rats, imatinib 30 mg/kg IG, l-GT vs h-GT group",no significant differences
same,AUC0∞ metabolite/AUC0∞ drug percentage,[18],3.3%
same,Cmax (metabolite) /Cmax (drug) percentage,[18],3.4%
same,AUC0∞ metabolite/AUC0∞ drug percentage,[19],6.6%
same,Cmax (metabolite) /Cmax (drug) percentage,[19],6.0%
same,AUC0∞ metabolite/AUC0∞ drug percentage,[20],4.0%
same,Cmax (metabolite) /Cmax (drug) percentage,[20],3.6%
same,AUC0∞ metabolite/AUC0∞ drug percentage,[21],6.0%
same,Cmax (metabolite) /Cmax (drug) percentage,[21],5.3%
same,AUC0∞ metabolite/AUC0∞ drug percentage,[22],7.8%
same,Cmax (metabolite) /Cmax (drug) percentage,[22],7.9%
same,AUC0∞ metabolite/AUC0∞ drug percentage,[23],5.5%
same,Cmax (metabolite) /Cmax (drug) percentage,[23],5.0%
same,AUC0∞ metabolite/AUC0∞ drug percentage,[24],3.5%
same,Cmax (metabolite) /Cmax (drug) percentage,[24],3.2%
same,AUC0∞ metabolite/AUC0∞ drug percentage,[25],6.8%
same,Cmax (metabolite) /Cmax (drug) percentage,[25],7.3%
(−)-epicatechin-3-gallate [ECG],inhibition of estrone-3-sulfate uptake,OATP-B; concentration of 10 mM,66.6%
